Measured values as given in patent US20250101446A1, “METHOD FOR GENETIC TRANSFORMATION OF PLANT ORGANELLE GENOME AND USES THEREOF” (Solar Grants Biotechnology Inc., priority 2022, published 2025).

Legend:
[1] = tested on: human NSCLC cell line NCI-H1792; assay: IL-6 secretion by NCI-H1792 cells incubated with NSP10-derived peptides (ELISA); format: cell-based; details: peptide 24 h
[2] = tested on: human metastatic breast cancer cell line MDA-MB-231; assay: IL-6 secretion by MDA-MB-231 cells (P1 stimulation, plantakine pre-incubation; ELISA); format: cell-based
Experimental: IL-6 secretion by the human metastatic breast cancer cell line MDA-MB-231 into the conditioned media was measured by ELISA. The cells were pre-incubated for 3 h in the presence of plant-produced recombinant IL-38 or IL-37b at the indicated concentrations (ng/ml) prior to stimulation with peptide P1 (10 mM). PBS (1×) was added to the control. Shown are the average results of 3 independent experiments. ** P<0.01; * P<0.05, compared with the control.
Correct folding of plant-produced IL-38 and IL-37b anti-inflammatory cytokines was assessed by enzyme-linked immunosorbent assay (ELISA) using the DuoSet Human IL-38/IL-1F10 kit (R&D systems) and the Human IL-37/IL-1F7 uncoated ELISA kit (Invitrogen), respectively, following the instructions of the manufacturers. Secreted IL-6 was assessed using the Human IL-6 Uncoated ELISA kit (Invitrogen).

in vitro = details: human
SARS-COV-2 = format: cell-based; details: at 200 µM concentration
[3] = tested on: human NSCLC cell line NCI-H1792; assay: Attenuation of P1-induced IL-6 secretion in NCI-H1792 cells by pre-treatment with plant-produced cytokines (ELISA); format: cell-based; details: control protein bearing an identical His-tag

| Compound | CC50 (in vitro) | stimulation / induction of IL-6 secretion (in words) [1] | also measured |
| --- | --- | --- | --- |
| CC[C@H](C)[C@H](NC(=O)[C@H](Cc1c[nH]cn1)NC(=O)[C@H](CS)NC(=O)[C@H](CCCNC(=N)N)NC(=O)[C@H](CS)NC(=O)[C@H](Cc1ccc(O)cc1)NC(=O)[C@H](CC(C)C)NC(=O)[C@H](CS)NC(=O)[C@H](CS)NC(=O)[C@H](CO)NC(=O)[C@H](C)NC(=O)CNC(=O)CNC(=O)[C@H](Cc1ccccc1)NC(=O)CNC(=O)[C@H](CO)NC(=O)CNC(=O)[C@H](CCCNC(=N)N)NC(=O)[C@H](CCCNC(=N)N)NC(=O)[C@H](CCCNC(=N)N)NC(=O)[C@H](CCC(N)=O)NC(=O)[C@H](CCCNC(=N)N)NC(=O)[C@H](CCCNC(=N)N)NC(=O)[C@H](CCCCN)NC(=O)[C@H](CCCCN)NC(=O)[C@H](CCCNC(=N)N)NC(=O)CNC(=O)[C@H](Cc1ccc(O)cc1)NC(C)=O)C(=O)N[C@@H](CC(=O)O)C(=O)N[C@@H](Cc1c[nH]cn1)C(=O)N1CCC[C@H]1C(=O)N[C@@H](CC(N)=O)C(=O)N1CCC[C@H]1C(=O)N[C@@H](CCCCN)C(=O)NCC(=O)N[C@@H](Cc1ccccc1)C(=O)N[C@@H](CS)C(=O)N[C@@H](CC(=O)O)C(=O)N[C@@H](CC(C)C)C(=O)N[C@@H](CCCCN)C(=O)NCC(=O)N[C@@H](CCCCN)C(=O)N[C@@H](Cc1ccc(O)cc1)C(N)=O [P1] | 11 µM | – | stimulation of the intrinsic secretion of IL-6 ([1]; normalized to PBS control): > 4 fold; IL-6 secretion on treatment with peptide (in words) [2]: strongly increased |
| CC[C@H](C)[C@H](NC(=O)[C@H](CCCNC(=N)N)NC(=O)[C@H](CS)NC(=O)[C@H](CCCNC(=N)N)NC(=O)[C@H](CS)NC(=O)[C@H](Cc1ccc(O)cc1)NC(=O)[C@H](CC(C)C)NC(=O)[C@H](CS)NC(=O)[C@H](CS)NC(=O)[C@H](CO)NC(=O)[C@H](C)NC(=O)CNC(=O)CNC(=O)[C@H](Cc1ccccc1)NC(=O)CNC(=O)[C@H](CO)NC(=O)CNC(=O)[C@H](CCCNC(=N)N)NC(=O)[C@H](CCCNC(=N)N)NC(=O)[C@H](CCCNC(=N)N)NC(=O)[C@H](CCC(N)=O)NC(=O)[C@H](CCCNC(=N)N)NC(=O)[C@H](CCCNC(=N)N)NC(=O)[C@H](CCCCN)NC(=O)[C@H](CCCCN)NC(=O)[C@H](CCCNC(=N)N)NC(=O)CNC(=O)[C@H](Cc1ccc(O)cc1)NC(C)=O)C(=O)N[C@@H](CC(=O)O)C(=O)N[C@@H](Cc1c[nH]cn1)C(=O)N1CCC[C@H]1C(=O)N[C@@H](CC(N)=O)C(=O)N1CCC[C@H]1C(=O)N[C@@H](CCCCN)C(=O)NCC(=O)N[C@@H](Cc1ccccc1)C(=O)N[C@@H](CS)C(=O)N[C@@H](CC(=O)O)C(=O)N[C@@H](CC(C)C)C(=O)N[C@@H](CCCCN)C(=O)NCC(=O)N[C@@H](CCCCN)C(=O)N[C@@H](Cc1ccc(O)cc1)C(N)=O [P2] | > 200 µM | no IL-6 induction | effect against the virus-infected cells (SARS-COV-2): no detectable effect |
| GFP: His-tag containing plant-produced Green Fluorescent Protein used as control protein [reference compound] | – | – | attenuation of P1-induced IL-6 expression (in words) [3]: did not result in any significant attenuation |
| YGRKKRRQRRRGSG (HIV-Tat peptide sequence) [TAT sequence peptide, 42, reference compound] | – | not | – |
